# According to paper PMC8955139, “Identifying HSV-1 Inhibitors from Natural Compounds via Virtual Screening Targeting Surface Glycoprotein D” (Pharmaceuticals, 2022):
# Read-outs that look alike come from different tables or passages of the source.
# Tests used:
# VERO cells [1] = test: Cytotoxicity of ACs, WST-1, 24 h; settings: for Toxicity at the highest concentration tested compared with DMSO control: 100 µg/mL; for Highest Concentration with Cell Viability above 75%: 24 h, WST-1, tested 0.1-100 µg/mL; for Toxicity to the cells: 10 µg/mL
# [2] = Cytotoxicity of ACs, WST-1, 24 h; settings: African green monkey, VERO cells
# HSV-1 strain F [3] = test: Plaque reduction dose-response assay in VERO cells; format: cell-based; settings: for EC50: Human alphaherpesvirus 1, plaque reduction
# HSV-1 [4] = test: Pre-treatment of cells with AC#7 before HSV-1 infection (Figure S2); format: cell-based
# VERO cells [5] = test: Toxicity of AC#7 on VERO cells at high concentration (800 µM, 2 h exposure, 46 h); settings: viability 46 h later, WST-1
# HSV-1 strain F [6] = test: Time of addition cytopathic effect (CPE) inhibition assay; format: cell-based; settings: for Antiherpetic activity in the in vitro assays: CPE inhibition, all stages, #28 at 10 µg/mL, #29 at 1 µg/mL
# in vitro = settings: African green monkey
# HSV-1 [7] = settings: cited from earlier work
# ACV-resistant HSV-1 = tested on: ACV-resistant HSV-1; design: method as in PMID 9660995; settings: in vivo; cited from earlier work
# SARS-CoV 3CLpro = settings: cited from earlier work
structure (smiles),measurement,setting,value
"O=C(/C=C1\NCCc2cc3c(cc21)OCO3)c1cc2ccccc2o1 [AC#7, 1-(1-benzofuran-2-yl)-2-[(5Z)-2H,6H,7H,8H-[1,3]dioxolo [4,5-g]isoquinoline-5-ylidene]ethenone]",Toxicity at the highest concentration tested compared with DMSO control,VERO cells [1],negligible toxicity
same,Highest Concentration with Cell Viability above 75%,VERO cells [1],>100 µg/mL
same,viability at 24 h,[2],124%
same,Reduction of virus-induced plaques compared to DMSO control,"HSV-1 strain F [3]; 25 µM, virus preincubated 1 h, VERO",significantly reduced the number of virus-induced plaques
same,Dose dependence of antiviral response,"HSV-1 strain F [3]; 6.25-400 µM, pre-incubated with the virus, vs DMSO control",dose-dependent antiviral response
same,EC50,"HSV-1 strain F [3]; virus preincubated with AC 1 h, VERO",61 µg/mL
same,EC50,"HSV-1 strain F [3]; virus preincubated with AC 1 h, VERO, asymmetric nonlinear regression R2 = 0.84",183 µM
same,Antiviral activity when cells were preincubated with AC prior to HSV-1 infection,"HSV-1 [4]; 10 µg/mL, 1 h before infection, MOI 5, VERO",No antiviral activity
same,Cell survival rate,"HSV-1 [4]; 10 µg/mL, cells pre-treated 1 h, MOI=5, 48 h",7.7%
same,inhibition at 10 µg/mL,"HSV-1 [4]; Human alphaherpesvirus 1, cells pre-treated 1 h, MOI=5, 48 h",0%
same,Toxicity to VERO cells,VERO cells [5],Negligible toxicity
same,Antiviral activity at the viral inactivation stage,"HSV-1 strain F [6]; 10 µg/mL, virus preincubated with AC 1 h, MOI 5, VERO, vs DMSO control",significantly higher activity than the DMSO control
"CN1CCN(C(=O)CCn2c3c(c4ccccc42)CCn2c-3nc3ccccc3c2=O)CC1 [AC#10, 13-[3-(4-methylpiperazin-1-yl)-3-oxopropyl]-8,13-dihydroindolo[2′,3′:3,4] pyrido [2,1-b]quinazolin-5(7H)-one]",Toxicity to the cells,VERO cells [1],exhibited toxicity
same,Highest Concentration with Cell Viability above 75%,VERO cells [1],1 µg/mL
same,viability at 24 h,[2],73.2%
"C[C@H]1CCC[C@]2(C)C[C@H]3OC(=O)[C@H](CN4CCN(c5ccccc5)CC4)[C@H]3[C@@H]3O[C@@]132 [AC#16, (1Ar,2S,5Ar,6Ar,9S,9Ar,9Bs)-2,5a-dimethyl-9-((4-phenylpiperazin-1-yl)methyl)octahydro-2H-oxireno[2′,3′:4,4a]naphtho[2,3-b]furan-8(9Bh)-one]",Toxicity to the cells,VERO cells [1],exhibited toxicity
same,Highest Concentration with Cell Viability above 75%,VERO cells [1],1 µg/mL
same,viability at 24 h,[2],102%
"Cc1ccc(Cl)cc1N1CCN(C[C@H]2C(=O)O[C@@H]3C[C@@]4(C)CCC[C@H](C)[C@@]45O[C@H]5[C@@H]32)CC1 [AC#17, (1Ar,2S,5Ar,6Ar,9S,9Ar,9Bs)-9-( (4-(5-chloro-2-methylphenyl)piperazin-1-yl)methyl)-2,5a-dimethyloctahydro-2H-oxireno[2′,3′:4,4a]naphtho[2,3-b]furan-8(9Bh)-one]",Toxicity to the cells,VERO cells [1],exhibited toxicity
same,Highest Concentration with Cell Viability above 75%,VERO cells [1],1 µg/mL
same,viability at 24 h,[2],96.8%
O=c1c(-c2c3cn[nH]c3nc3c2oc2cc(O)ccc23)cc2cccc3c2n1CC3 [AC#27],Toxicity at the highest concentration tested compared with DMSO control,VERO cells [1],negligible toxicity
same,Highest Concentration with Cell Viability above 75%,VERO cells [1],>100 µg/mL
same,viability at 24 h,[2],106%
same,Antiviral activity at the post-entry stage,"HSV-1 strain F [6]; 10 µg/mL, AC added 1 h after infection, MOI 5, VERO",possess antiherpetic activity
"O=C(CC1NC(=O)c2ccccc21)Nc1ccc2c(c1)C(=O)N1CCC[C@H]1C(=O)N2 (stereo partly drawn) [AC#28, N-((S)-5,11-dioxo-2,3,5,10,11,11a-hexahydro-1H-benzo[e]pyrrolo[1,2-a][1,4]diazepin-7-yl)-2-(3-oxoisoindolin-1-yl)acetamide]",Toxicity at the highest concentration tested compared with DMSO control,VERO cells [1],negligible toxicity
same,Highest Concentration with Cell Viability above 75%,VERO cells [1],>100 µg/mL
same,viability at 24 h,[2],105%
same,Antiherpetic activity in the in vitro assays,HSV-1 strain F [6],failed to show antiherpetic activity
"O=C1NC(=O)c2c1c1c3ccccc3[nH]c1c1[nH]c3ccccc3c21 [AC#29, Arcyriaflavin A]",viability at 24 h,in vitro,86.2%
same,Antiherpetic activity in the in vitro assays,HSV-1 strain F [6],failed to show antiherpetic activity
"Nc1nc2c(ncn2COCCO)c(=O)[nH]1 [ACV, 9-((2-Hydroxyethoxy)methyl) guanine, reference compound]",EC50,"HSV-1 strain F [3]; added post-HSV infection, VERO, R2 > 0.99",0.77 µM
same,EC50,HSV-1 [7]; in vitro,~1 µM
CC[C@@H](NC(=O)[C@@H](CC(=O)[C@@H](CC(=O)[C@@H](NC(=O)[C@H](C(C)C)N(C)C(=O)[C@H](C)CC1CCCCC1)C(C)(C)C)CC(=O)C(C)(C)C)C1(C(=O)O)CCCC1)C(C)(C)C [BILD 1633 SE],Therapeutic effect against ACV-resistant HSV-1 infections,ACV-resistant HSV-1,potent therapeutic effect
same,Antiviral activity in vitro relative to ACV,HSV-1 [7]; in vitro,higher antiviral activity than ACV
COc1cc(/C=C/C(=O)CC(=O)/C=C/c2ccc(O)c(OC)c2)ccc1O [curcumin],EC50,HSV-1 [7]; antiviral activity,89.6 µM
Cc1cc(O)c2c(c1)C(=O)c1cc(O)cc(O)c1C2=O [emodin],EC50,HSV-1 [7]; antiviral activity,21.5 to 195 µM
O=C(O[C@@H]1Cc2c(O)cc(O)cc2O[C@@H]1c1cc(O)c(O)c(O)c1)c1cc(O)c(O)c(O)c1 [epigallocatechin gallate],EC50,HSV-1 [7]; antiviral activity,12.5 to 50 µM
CCOC(=O)/C=C/[C@H](C[C@@H]1CCNC1=O)NC(=O)[C@@H](CC(=O)[C@@H](NC(=O)c1cc(C)on1)C(C)C)Cc1ccc(F)cc1 [rupintrivir],Inhibition of SARS-CoV 3CLpro,SARS-CoV 3CLpro,weak to undetectable inhibition
